The text below walks through data of ChEMBL document CHEMBL2057193, “Preparation of 3-substituted-1-isopropyl-1H-pyrazolo[3,4-d]pyrimidin-4-amines as RET kinase inhibitors” (J Med Chem, 2012).

Data set [1] concerns TPC1. In words: Antiproliferative activity against human TPC1 cells. It counts as functional, cell-based.
In data set [2] the target is T1, Proto-oncogene tyrosine-protein kinase receptor Ret (Homo sapiens, UniProt P07949). In words: Inhibition of RET by commercial radiometric assay.
Data set [3] deals with T2, Mitogen-activated protein kinase; ERK1/ERK2 (Homo sapiens) (UniProt P27361+P28482). Put plainly: Inhibition of ERK1/2 phosphorylation in human HCT116 cells at 50 to 200 nM by Western blotting. It counts as cell-based. The conditions noted are these: HCT-116. For orientation: Immunoblotting shows a protein as a band on a membrane.
The target of data set [4] is T2, Mitogen-activated protein kinase; ERK1/ERK2 (Homo sapiens). In words: Inhibition of nuclear translocation of ERK1/2 in human HCT116 cells at 200 nM by immunofluorescence microscopy. The data set is classed as cell-based. The conditions noted are these: HCT-116.
Data set [5] concerns HCT-116. Put plainly: Antiproliferative activity against human HCT116 cells. It counts as functional, cell-based.
Data set [6] relates to HCT-116. Put plainly: Antiproliferative activity against human HCT116 cells at 1 uM. The data set is classed as functional, cell-based.
In data set [7] the test system is TPC1. Put plainly: Antiproliferative activity against human TPC1 cells at 1 uM. It counts as functional, cell-based.
In data set [8] the test system is HCT-116. In words: Toxicity in human HCT116 cells at =< 10 uM. It counts as cell-based.
Data set [9] concerns TPC1. In words: Toxicity in human TPC1 cells at =< 10 uM. It counts as cell-based.
In data set [10] the target is T1, Proto-oncogene tyrosine-protein kinase receptor Ret. The conditions noted are these: MCF7, 100 nM.
Description: Inhibition of RET in serum starved human MCF7 cells assessed as reduction in GDNF-induced ERK1/2 phosphorylation at 100 nM added 30 mins before GDNF stimulation and incubated for further 45 mins by Western blotting
Data set [11] shares this target. Particulars: TPC1, 50 to 200 nM.
Description: Inhibition of RET in human TPC1 cells expressing constitutively active RET fusion protein assessed as reduction in ERK1/2 phosphorylation at 50 to 200 nM by Western blotting
For data set [12] the target is unchanged. The conditions noted are these: TPC1, 200 nM.
Description: Inhibition of RET in human TPC1 cells expressing constitutively active RET fusion protein assessed as reduction in nuclear translocation of ERK1/2 at 200 nM by immunofluorescence microscopy

Active and inactive are the calls of the source. The calls are words filed in the database; no cut-off is given here.

T1 sequence (P07949 whole entry): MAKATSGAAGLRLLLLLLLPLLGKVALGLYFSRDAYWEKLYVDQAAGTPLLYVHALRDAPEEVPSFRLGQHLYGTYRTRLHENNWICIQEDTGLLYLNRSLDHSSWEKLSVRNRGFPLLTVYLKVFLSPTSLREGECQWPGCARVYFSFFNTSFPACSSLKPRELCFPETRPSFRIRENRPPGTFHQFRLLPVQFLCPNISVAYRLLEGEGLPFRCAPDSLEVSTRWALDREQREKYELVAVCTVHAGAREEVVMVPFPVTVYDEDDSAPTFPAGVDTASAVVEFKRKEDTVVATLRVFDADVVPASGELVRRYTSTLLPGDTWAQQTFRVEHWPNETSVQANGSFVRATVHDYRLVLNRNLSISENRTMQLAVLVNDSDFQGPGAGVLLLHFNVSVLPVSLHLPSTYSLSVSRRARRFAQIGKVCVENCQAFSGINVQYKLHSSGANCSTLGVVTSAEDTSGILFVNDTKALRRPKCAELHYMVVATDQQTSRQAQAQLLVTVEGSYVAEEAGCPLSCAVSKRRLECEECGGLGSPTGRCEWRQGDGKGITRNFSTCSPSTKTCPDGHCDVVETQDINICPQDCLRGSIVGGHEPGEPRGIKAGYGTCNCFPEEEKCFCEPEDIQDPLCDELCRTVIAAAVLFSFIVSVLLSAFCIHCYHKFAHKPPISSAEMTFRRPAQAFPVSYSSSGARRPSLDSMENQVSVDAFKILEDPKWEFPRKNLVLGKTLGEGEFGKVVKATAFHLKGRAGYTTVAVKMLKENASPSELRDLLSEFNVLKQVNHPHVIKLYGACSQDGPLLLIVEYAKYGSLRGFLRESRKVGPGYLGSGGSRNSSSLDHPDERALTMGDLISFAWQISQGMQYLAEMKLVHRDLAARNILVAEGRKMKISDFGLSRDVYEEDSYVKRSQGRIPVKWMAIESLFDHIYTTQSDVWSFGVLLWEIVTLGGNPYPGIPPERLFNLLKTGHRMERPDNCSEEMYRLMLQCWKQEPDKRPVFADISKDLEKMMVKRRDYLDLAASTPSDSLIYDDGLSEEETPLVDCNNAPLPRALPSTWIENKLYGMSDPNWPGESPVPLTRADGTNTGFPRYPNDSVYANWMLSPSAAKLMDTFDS
T2 sequence (P27361 whole entry, looked up): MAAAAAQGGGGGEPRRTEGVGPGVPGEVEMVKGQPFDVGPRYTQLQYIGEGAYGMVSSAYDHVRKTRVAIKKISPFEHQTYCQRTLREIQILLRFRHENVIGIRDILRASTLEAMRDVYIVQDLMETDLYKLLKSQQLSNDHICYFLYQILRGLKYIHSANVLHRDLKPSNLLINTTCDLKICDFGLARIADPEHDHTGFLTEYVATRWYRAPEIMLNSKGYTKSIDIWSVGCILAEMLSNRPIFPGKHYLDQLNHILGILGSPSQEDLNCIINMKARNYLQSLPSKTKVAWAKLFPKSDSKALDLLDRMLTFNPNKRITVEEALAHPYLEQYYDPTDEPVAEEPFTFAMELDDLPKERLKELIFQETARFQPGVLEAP
T2 sequence (P28482 whole entry, looked up): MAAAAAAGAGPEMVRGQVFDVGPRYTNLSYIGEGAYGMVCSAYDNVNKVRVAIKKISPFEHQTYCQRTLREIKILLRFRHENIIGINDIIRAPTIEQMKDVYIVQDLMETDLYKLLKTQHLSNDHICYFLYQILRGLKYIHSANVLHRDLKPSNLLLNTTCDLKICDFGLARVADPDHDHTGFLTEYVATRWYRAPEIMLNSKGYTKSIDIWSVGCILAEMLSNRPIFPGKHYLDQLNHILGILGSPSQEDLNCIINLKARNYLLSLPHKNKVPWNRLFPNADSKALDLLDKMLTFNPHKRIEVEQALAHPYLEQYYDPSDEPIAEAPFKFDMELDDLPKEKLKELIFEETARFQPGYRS

In general, EC50 refers to the concentration needed to bring the measured effect to its halfway point. Consider `CNC(=O)c1cc(Oc2ccc(NC(=O)Nc3ccc(Cl)c(C(F)(F)F)c3)cc2)ccn1` [SORAFENIB], for which, in the data set with TPC1 [1], the EC50 worked out at 2600 nM.

By IC50 is commonly meant the concentration needed to halve the response being measured. Read a low IC50 as greater potency in that assay. Consider `CC(C)n1nc(C#Cc2ccccc2)c2c(N)ncnc21`, for which the midpoint of inhibition in data set [2], the IC50, lay at 8 nM. The inhibition result (in data set [3]; in [4]; in the data set with HCT-116 [6]) was “inactive” each time. The figures for the EC50 with HCT-116 [5] and with TPC1 [1] were 2400 nM and 3300 nM, respectively. Moreover, the inhibition entry (in the data set on TPC1 [7]; in [10]; in [11]; in data set [12]) was “Active” each time. Moreover, the Activity entry with HCT-116 [8] and in the data set with TPC1 [9] was “Non-toxic” each time.
